Read-outs that look alike come from different tables or passages of the source.
Tests used:
[1] = test system: thoracic aorta strips contracted with potassium chloride; test: Vasodilator activity: potassium chloride-contracted aortic strips; assay type: cell-based, male Sprague-Dawley rats; conditions: for IC50: read-out: IC50 (mean and range of SEM) KCl; for comparative vasodilator activity, potassium chloride-treated tissue: KCl-treated aortic tissue
Text: (§1) Pr-MDI, bu-MDI, Q-bu-MDI and the compounds of Formulae IIIA, IIIB and IVA having the two R1 groups together forming a methylene group, each R3 a methyl group and R2 an n-propyl group or n-butyl group (the compounds of Formula III are hereinafter abbreviated as sat-pr-MDI and sat-bu-MDI respectively, reference being made where necessary to the cis isomer of Formula III A or the trans isomer of Formula III B while the compounds of Formula IV are similarly referred to as cis sat-Q-pr-MDI and cis sat-Q-bu-MDI) were tested for vasodilator activity by the method of R. F. Furchgott and S. Bhadrakom, J. P. Pharmacol. Ex. Ther., 108, 129-143 (1953).
(§2) The vasodilator activity tests were conducted on male Sprague-Dawley rats, obtained from Harlan Industries, Inc., Cumberland, Indiana. The rats, weight 250-300 g., were sacrified by cervical dislocation and a 2.5 cm. segment of the thoracic aorta was removed and rinshed in physiological buffer. Each aortic segment was cleaned of connective tissue and cut spirally two yield to strips, each 3 by 15 mm. Each strip was mounted isometrically under a tension of 1 g in a 10 ml. tissue bath thermostatically maintained at 37° C. and containing a normal physiological solution aerated with a 95% oxygen/5% carbon dioxide mixture. Forces generated by the strip were monitored using a Grass FT03 isometric transducer coupled to a Grass module 7D polygraph recorder, both the transducer and the recorder being obtained from Grass Instrument Co., of Quincy, Mass.
(§3) After the aortic tissue had been allowed to equilibriate for 1-1.5 hours in the normal physiologic solution, tissue contraction was induced by introducing either 10^-7 M norepinephrine or 40mM potassium chloride buffer to the tissue bath.
(§4) To avoid interference by loss of tension due to time dependent tissue fatigue, separate preliminary experiments were performed to determine the degree of tissue relaxation due to such fatigue and the value of the control tension generated by norepinephrine or potassium chloride prior to the addition of the test compounds was adjusted whenever the duration of the experiment was such that fatigue could be expected to cause more than a 6% loss of tension. […] All concentrations mentioned hereinafter represent the final concentration of the test compound after dilution in the tissue bath.
(§5) The figures of concentration against percent response data obtained from each aortic tissue were transformed to its appropriate probit value and IC50 values were then estimated using linear regression analysis. The normal physiological solution contained 6.9 g/l of sodium chloride, 0.35 g/l of potassium chloride, 0.11 g/l of magnesium chloride hexahydrate, 0.138 g/l of sodium dihydrogen phosphate, 2.1 g/l of sodium bicarbonate, 0.01 g/l of EDTA, 0.368 g/l of calcium chloride dihydrate and 2.0 g/l of dextrose. The high potassium buffers were obtained by substituting potassium chloride for sodium chloride on an equimolar basis to maintain tonicity.

[2] = test system: thoracic aorta strips contracted with norepinephrine; test: Vasodilator activity: norepinephrine-contracted aortic strips; assay type: cell-based, male Sprague-Dawley rats; conditions: for IC50: read-out: IC50 (mean and range of SEM) Norepinephrine; for comparative vasodilator activity, norepinephrine-treated tissue: norepinephrine-treated aortic tissue; for relaxation of the aortic tissue: norepinephrine- or KCl-treated tissue
Text: as §1, §2, §3, §4, §5

[3] = tested acutely and subchronically; earlier published work; cited from earlier work
mice = test: Toxicity Tests (intraperitoneal LD50); assay type: in vivo; conditions: i.p., table: mean values and 95% confidence limits
isolated left atria = test: Effects on isolated guinea pig atria: electrically driven left atria; assay type: cell-based
Text: The effects of pr-MDI, bu-MDI and Q-bu-MDI on the mechanical and electrical behavior of isolated guinea pig atria were investigated by the method of H. Nawrath, J. Pharmacol. Exp. Ther., 16, 176-182 (1980). The compounds were investigated over the concentration range of 10^-8 to 3×10^-4 M.
English short-haired guinea pigs, supplied by Carr Animal Supply, of Powell, Ohio, weighing 300-600 g. were killed by a blow on the head and both atria of the animal were quickly dissected out and suspended in a water-jacketed organ bath containing Krebs-Henseleit solution through which a 95% oxygen/5% carbon dioxide mixture was bubbled at 32° C. The solution contained 6.92 g/l of sodium chloride, 0.35 g/l of potassium chloride, 0.29 g/l of magnesium […] heptahydrate, 0.3 g/l of calcium chloride dihydrate, 0.16 g/l of potassium dihydrogen phosphate, 2.1 g/l of sodium bicarbonate and 2.1 g/l of dextrose. The contractile force generated by the isolated artria was recorded isometrically under a 500 mg. preload using a Narco Biosystems force transducer connected to a physiograph DMP-4B recorder, both the transducer and the recorder being obtained from E & M Instrument Co. of Houston, Texas.
The isolated left atria were electrically driven by square wave impulses of 3 milliseconds duration at a frequency of 3 Hz. and a voltage of twice the threshold voltage, delivered by a Grass S9 stimulator obtained from Grass Instrument Co., of Quincy, Massachusetts. Two platinum electrodes were used for the stimulation, the anode being in direct contact with the atrial tissue while the cathode had the form of a ring suspended 2.5 centimeters above the anode. Before redetermination of the threshold voltage and generation of a predrug (control) frequency-force profile over the range of 1-5 Hz., an equilibriation time of one hour was allowed. The system was then re-equilibriated at 3 Hz. and twice the threshold voltage as before, then one cumulative dose-response curve of contractile force for one test compound was obtained, followed immediately by redetermination of the threshold voltage and the generation of a post-drug frequency-force profile.
A paired Student's t-test was used to compare predrug and postdrug threshold voltages for each left atrial preparations as well as to compare developed tension at each frequency in the profile of each left atrial preparation. P values of less than 0.05 were considered statistically significant.

[4] = test system: chloroform anoxia arrhythmia in mice; test: Chloroform Anoxia Assay (chloroform-induced ventricular fibrillation); assay type: in vivo, Female Swiss albino mice; conditions: for ED50: i.p., 10 min before chloroform, table: mean values and 95% confidence limits
Protocol: The same four compounds were tested for their ability to protect mice from chloroform anoxia by the classical chloroform inhalation procedure described in Lawson J. W.: Antiarrhythmic activity of some isoquinoline derivatives determined by a rapid screening procedure in the mouse, J. Pharmacol. Exp. Ther. 160: 22-31, (1968). In this method, chloroform inhalation leading to respiratory arrest produces ventricular fibrillation. Female Swiss albino mice procured from Laboratory Supply Company, Indianapolis, Indiana, weighing 16-22 g, were pretreated intraperitoneally with the compound under test dissolved in a 5% dextrose solution 10 minutes before exposure to chloroform in a closed container containing chloroform-saturated cotton. The mice were removed from the chloroform atmosphere immediately after respiratory arrest and the electrocardiograph lead II monitored. The ED 50 and 95% confidence limits calculated for the anti-arrhythmic agents by the standard method of Litchfield and Wilcoxon.

[5] = test system: calcium-induced arrhythmias in rats; test: Calcium-induced arrhythmias (CaCl2 injected i.v. into anesthetized rats)
Text: The experimental method used was that described in Lynch J. J., Rahwan R. G., Witiak D. T.: Effects of 2-substituted-3-dimethylamino-5,6-methylenedioxyindenes on calcium-inducedarrhythmias, J. Cardiovasc. Pharmacol. 3: 49-60 (1981). Male Sprague-Dawley rats weighing 180-250 grams were anesthetized with sodium pentobarbital and a cannula was inserted into the left jugular vein for drug administration. Electrocardiograph equipment was connected to the rat and the lead II was continuously monitored. The compound under test, dissolved in 5% dextrose solution, was administered into the jugular vein of anesthetized rats over a 40 second period. Ten minutes after this treatment, an acute dose of 1 ml/kg of a 10% CaCl2.2H2 O solution was injected into the jugular vein over a period of 10 seconds. The arrhythmias resulting from the calcium administration were graded according to the following criteria: (a) initial change in heart rate following calcium administration; (b) incidences of sinoatrial block, atrioventricular block, ectopic beats, and ventricular flutter and fibrillation; (c) time required for reversion to control ECG; and (d) incidence of mortality.

[6] = rat aorta contracted with 40 mM potassium chloride
[7] = rat aorta contracted with 10^-7 M norepinephrine

CCCC[C@@H]1Cc2cc3c(cc2[C@@H]1[N+](C)(C)C)OCO3 (relative stereo) [cis sat-Q-bu-MDI]
IC50 [1, 6]: 175 µM | IC50 [2, 7]: 281 µM

CCC[C@@H]1Cc2cc3c(cc2[C@@H]1[N+](C)(C)C)OCO3 (relative stereo) [cis sat-Q-pr-MDI, cis-2-propyl-5,6-methylenedioxyindane-1-trimethylammonium iodide]
IC50 [1, 6]: 871 µM | IC50 [2, 7]: 1020 µM

CCCC[C@@H]1Cc2cc3c(cc2[C@@H]1N(C)C)OCO3 (relative stereo) [cis sat-bu-MDI, 2-butyl-5,6-methylenedioxyindane-1-dimethylammonium chloride]
comparative vasodilator activity, potassium chloride-treated tissue [1]: substantially the same activity | IC50 ([1]; Rattus norvegicus): 17.4 µM | IC50 ([2]; Rattus norvegicus): 37.9 µM | comparative vasodilator activity, norepinephrine-treated tissue [2]: greater activity on norepinephrine treated tissue than the corresponding butyl compound of Formula I

CCC[C@@H]1Cc2cc3c(cc2[C@@H]1N(C)C)OCO3 (relative stereo) [cis sat-pr-MDI, 2-propyl-5,6-methylenedioxyindane-1-dimethylammonium chloride]
comparative vasodilator activity, potassium chloride-treated tissue [1]: slightly lower activity | IC50 ([1]; Rattus norvegicus): 30 µM | IC50 ([2]; Rattus norvegicus): 59.4 µM | comparative vasodilator activity, norepinephrine-treated tissue [2]: substantially the same activity as the corresponding unsaturated propyl compound of Formula I

CCCC[C@H]1Cc2cc3c(cc2[C@@H]1N(C)C)OCO3 (relative stereo) [trans sat-bu-MDI]
IC50 ([1]; Rattus norvegicus): 31.1 µM | IC50 ([2]; Rattus norvegicus): 151 to 173 µM

CCC[C@H]1Cc2cc3c(cc2[C@@H]1N(C)C)OCO3 (relative stereo) [trans sat-pr-MDI, 2-propyl-5,6-methylenedioxyindane-1-dimethylammonium chloride]
IC50 ([1]; Rattus norvegicus): 98.9 µM | IC50 ([2]; Rattus norvegicus): 383 µM

CCCC1=Cc2cc3c(cc2C1[N+](C)(C)C)OCO3.[I-] (stereo not drawn) [Q-pr-MDI, 2-propyl-5,6-methylenedioxyindene-1-trimethylammonium iodide]
IC50 [1, 6]: 547 µM | relaxation of the aortic tissue [2]: relaxed the aortic tissue | comparative vasodilator activity, norepinephrine-treated tissue [2]: less active in vitro than their tertiary analogs | IC50 [2, 7]: 382 µM

NC[C@H](O)c1ccc(O)c(O)c1 [norepinephrine, reference compound]
control tension as percent of the maximum inducible contraction ([2]; 10^-7 M norepinephrine): 85.1% | control tension generated ([2]; 10^-7 M norepinephrine, rat aortic strip): 0.98 ± 0.03 g

[Cl-].[K+] [potassium chloride, reference compound]
control tension as percent of the maximum inducible contraction ([1]; 40 mM potassium chloride): 84.2% | control tension generated ([1]; 40 mM potassium chloride, rat aortic strip): 0.89 ± 0.05 g

CCCC1=Cc2cc3c(cc2C1N(C)C)OCO3.Cl (stereo not drawn) [pr-MDI, 2-propyl-5,6-methylenedioxyindene-1-dimethylammonium chloride, reference compound]
IC50 [1, 6]: 21.4 µM | toxicity [3]: remarkable lack of toxicity | LD50 (mice): 185 mg/kg | relaxation of the aortic tissue [2]: relaxed the aortic tissue | comparative vasodilator activity, norepinephrine-treated tissue [2]: considerably more active than Q-pr-MDI | IC50 [2, 7]: 78.2 µM | effect on frequency-force profile/relation of the stimulated left atrium (isolated left atria; 3×10^-4 M): virtually identical to that of the butyl homolog | overall effect on mechanical and electrical behavior of atria (isolated left atria; 10^-8 to 3×10^-4 M): generally similar to those of bu-MDI | Therapeutic Index (LD50/ED50) ([4]; ED50 from chloroform anoxia, LD50 i.p.): 2.7 | potency against chloroform/anoxia-induced arrhythmia versus quinidine ([4]; earlier work of applicants): as potent as quinidine | ED50 ([4]; n = 40, 10 min): 68 mg/kg | ED50 ([4]; n = 40, listed as Pr--MDI, 10 min): 68.0 mg/kg | Antiarrhythmic Potency ([4]; quinidine = 1.00, chloroform anoxia): 0.99 | potency and safety against calcium-induced arrhythmia versus verapamil ([5]; earlier work of applicants): more potent and safer then verapamil | concentration effective against calcium-induced arrhythmias ([5]; i.v., 10 min before CaCl2): 3.75 mg/kg | deleterious side effects ([5]; i.v., Q-bu-MDI at 0.5 mg/kg, pr-MDI and bu-MDI at 3.75 mg/kg): without deleterious side effects

C=C[C@H]1C[N@@]2CC[C@H]1C[C@@H]2[C@@H](O)c1ccnc2ccc(OC)cc12 [quinidine, reference compound]
ED50 ([4]; Mus musculus, ip, 10 min, n = 40, read-out: ED50): 67 mg/kg | effect on the S wave ([5]; 8 mg/kg (minimum effective concentration)): severely deepened the S wave

From US4542153A, “Methods for changing calcium metabolism within the cells of a mammal” (The Ohio State University Research Foundation, priority 1983, dated 1985)
